The source of these data is US20160250228A1 (Acerus Pharmaceuticals Corporation, priority 2011, published 2016).

The conditions of series [1]: reported normal range, cited from earlier work; for Normal Range Max: maximum; for Normal Range Min: minimum.
Series [2] is described as follows: Baseline (24-hour pre-dose) and normal ranges of endogenous analytes (free/total testosterone, DHT, estradiol, SHBG). The note with it: for Pooled Baseline Max / Pooled Baseline Min: baseline range observed, all cohorts pooled; for Pooled Baseline Max / Baseline Max, Dose Cohort 600 (μg) / Baseline Max, Dose Cohort 1200 (μg) / Baseline Max, Dose Cohort 1800 (μg): maximum; for Pooled Baseline Min / Baseline Min, Dose Cohort 600 (μg) / Baseline Min, Dose Cohort 1200 (μg) / Baseline Min, Dose Cohort 1800 (μg): minimum; for Baseline Max, Dose Cohort 600 (μg) / Baseline Min, Dose Cohort 600 (μg) / Baseline Max, Dose Cohort 1200 (μg) / Baseline Min, Dose Cohort 1200 (μg) / Baseline Max, Dose Cohort 1800 (μg) / Baseline Min, Dose Cohort 1800 (μg): baseline range; for Baseline Max, Dose Cohort 600 (μg) / Baseline Min, Dose Cohort 600 (μg): 600 μg dose cohort; for Baseline Max, Dose Cohort 1200 (μg) / Baseline Min, Dose Cohort 1200 (μg): 1200 μg dose cohort; for Baseline Max, Dose Cohort 1800 (μg) / Baseline Min, Dose Cohort 1800 (μg): 1800 μg dose cohort.

A short description of series [3]: General properties of testosterone: stability. It is filed as physicochemical. As to conditions: in air.

As for `C[C@]12CCC(=O)C[C@@H]1CC[C@@H]1[C@@H]2CC[C@]2(C)[C@@H](O)CC[C@@H]12` [Dihydrotestosterone], in series [1], the “Normal Range Max” value is on record as 22.00 ng/dL and the “Normal Range Min” value is listed as 4.00 ng/dL. Also, in series [2], the “Pooled Baseline Max” value was found to be 32.60 ng/dL; the “Pooled Baseline Min” value was 5.02 ng/dL; the “Baseline Max, Dose Cohort 600 (μg)” value was found to be 22.10 ng/dL; the “Baseline Min, Dose Cohort 600 (μg)” value is recorded as 5.29 ng/dL. Also, in series [2], the “Baseline Max, Dose Cohort 1200 (μg)” value is given as 25.30 ng/dL; the “Baseline Min, Dose Cohort 1200 (μg)” value is given as 5.04 ng/dL; the “Baseline Max, Dose Cohort 1800 (μg)” value turned out to be 32.60 ng/dL; the “Baseline Min, Dose Cohort 1800 (μg)” value amounted to 5.02 ng/dL.

As to `C[C@]12CC[C@@H]3c4ccc(O)cc4CC[C@H]3[C@@H]1CC[C@@H]2O` [Estradiol], in series [2], the “Pooled Baseline Max” value worked out at 12.2 ng/dL; the “Pooled Baseline Min” value came to 1.7 ng/dL; the “Baseline Max, Dose Cohort 600 (μg)” value turned out to be 12.2 ng/dL; the “Baseline Min, Dose Cohort 600 (μg)” value was 2.09 ng/dL. Besides, in series [2], the “Baseline Max, Dose Cohort 1200 (μg)” value is 11.9 ng/dL; the “Baseline Min, Dose Cohort 1200 (μg)” value was determined as 1.7 ng/dL; the “Baseline Max, Dose Cohort 1800 (μg)” value was found to be 9.74 ng/dL; the “Baseline Min, Dose Cohort 1800 (μg)” value turned out to be 1.77 ng/dL.

With `C[C@]12CC[C@H]3[C@@H](CCC4=CC(=O)CC[C@@]43C)[C@@H]1CC[C@@H]2O` [Testosterone, 17β-Hydroxyandrost-4-en-3-one], the Stability result in series [3] is “powder. It is odourless, and stable in air”.

B1: SHBG (protein, UniProt P04278 30-402, looked up)
Sex hormone-binding globulin: LRPVLPTQSAHDPPAVHLSNGPGQEPIAVMTFDLTKITKTSSSFEVRTWDPEGVIFYGDTNPKDDWFMLGLRDGRPEIQLHNHWAQLTVGAGPRLDDGRWHQVEVKMEGDSVLLEVDGEEVLRLRQVSGPLTSKRHPIMRIALGGLLFPASNLRLPLVPALDGCLRRDSWLDKQAEISASAPTSLRSCDVESNPGIFLPPGTQAEFNLRDIPQPHAEPWAFSLDLGLKQAAGSGHLLALGTPENPSWLSLHLQDQKVVLSSGSGPGLDLPLVLGLPLQLKLSMSRVVLSQGSKMKALALPPLGLAPLLNLWAKPQGRLFLGALPGEDSSTSFCLNGLWAQGQRLDVDQALNRSHEIWTHSCPQSPGNGTDASH
As for B1, in series [1], the “Normal Range Max” value is listed as 114.00 nmol/L and the “Normal Range Min” value is given as 18.00 nmol/L. Also, in series [2], the “Pooled Baseline Max” value worked out at 137.00 nmol/L; the “Pooled Baseline Min” value amounted to 15.30 nmol/L; the “Baseline Max, Dose Cohort 600 (μg)” value came to 102.00 nmol/L; the “Baseline Min, Dose Cohort 600 (μg)” value was 15.30 nmol/L. In addition, in series [2], the “Baseline Max, Dose Cohort 1200 (μg)” value turned out to be 86.70 nmol/L; the “Baseline Min, Dose Cohort 1200 (μg)” value is on record as 16.00 nmol/L; the “Baseline Max, Dose Cohort 1800 (μg)” value turned out to be 137.00 nmol/L; the “Baseline Min, Dose Cohort 1800 (μg)” value is 25.20 nmol/L.
